Source: ChEMBL document CHEMBL1151490, “Inhibition of farnesyl protein transferase by new farnesyl phosphonate derivatives of phenylalanine” (Bioorg Med Chem Lett, 1996)

Columns and labels:
[1] = biological target: T1, Protein farnesyltransferase (Bos taurus, UniProt P29702+P49355); test: Inhibition of farnesyl protein transferase from bovine brain
[2] = biological target: T2, Squalene synthase (Rattus norvegicus, UniProt Q02769); test: Inhibition of squalene synthase from rat liver microsomes
T2 sequence (Q02769 whole entry): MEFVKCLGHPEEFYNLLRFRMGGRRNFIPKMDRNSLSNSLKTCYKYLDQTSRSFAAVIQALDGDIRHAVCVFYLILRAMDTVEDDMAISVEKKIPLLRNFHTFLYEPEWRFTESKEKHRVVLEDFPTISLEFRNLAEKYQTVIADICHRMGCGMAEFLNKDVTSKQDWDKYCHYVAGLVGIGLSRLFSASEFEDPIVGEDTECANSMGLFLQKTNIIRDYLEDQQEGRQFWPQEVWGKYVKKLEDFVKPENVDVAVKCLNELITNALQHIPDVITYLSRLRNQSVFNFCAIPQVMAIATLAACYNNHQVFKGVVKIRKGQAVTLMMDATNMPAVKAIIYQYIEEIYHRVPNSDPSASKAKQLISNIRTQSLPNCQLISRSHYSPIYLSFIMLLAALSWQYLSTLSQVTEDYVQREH

[3] = biological target: T1, Protein farnesyltransferase; test: Inhibition of Farnesyltransferase from bovine brain

| Compound | IC50 [1] [µM] | IC50 [2] [µM] | IC50 [3] [µM] |
| --- | --- | --- | --- |
| CC(C)=CCC/C(C)=C/CC/C(C)=C/CC(C(=O)N[C@@H](Cc1ccccc1)C(=O)O)P(=O)(O)O (some centres undefined) | 0.08 | 1.3 | – |
| CC(C)=CCC/C(C)=C/CC/C(C)=C/CC(CCP(=O)(O)O)C(=O)N[C@@H](Cc1ccccc1)C(=O)O (some centres undefined) | 10 | 4.2 | – |
| CC(C)=CCC/C(C)=C/CC/C(C)=C/CC(CP(=O)(O)O)C(=O)N[C@@H](Cc1ccccc1)C(=O)O (some centres undefined) | 0.17 | 0.09 | – |
| CC(C)=CCC/C(C)=C/CC/C(C)=C/CC(CC(=O)N[C@@H](Cc1ccccc1)C(=O)O)P(=O)(O)O (some centres undefined) | 0.47 | 0.22 | – |
| CC(C)=CCC/C(C)=C/CC/C(C)=C/CC(C(=O)O)C(=O)NC(Cc1ccccc1)C(=O)O (centres undefined) | 37 | 2.4 | – |
| COC(=O)[C@H](Cc1ccccc1)NC(=O)C(C/C=C(\C)CC/C=C(\C)CCC=C(C)C)P(=O)(O)O (some centres undefined) | > 100 | 1.4 | – |
| CC(C)=CCC/C(C)=C/CC/C(C)=C/CC(C(=O)N[C@H](Cc1ccccc1)C(=O)O)P(=O)(O)O (some centres undefined) | 0.98 | 0.5 | – |
| CC(C)=CCC/C(C)=C/CC/C(C)=C/CC(C(=O)NCCc1ccccc1)P(=O)(O)O (centres undefined) | 13 | 0.48 | – |
| CC(C)=CCC/C(C)=C/CC/C(C)=C/C(O)P(=O)(O)O (centres undefined) | 0.41 | 2.3 | – |
| CC(C)=CCC/C(C)=C/CCCC(P(=O)(O)O)P(=O)(O)O [SQ-34919] | – | – | 80 |
